Test results as given in publication PMC8657848, “Developmental Toxicity and Biotransformation of Two Anti-Epileptics in Zebrafish Embryos and Early Larvae” (International Journal of Molecular Sciences, 2021).
“And” between values parts separate entries of the source, which are not always exact repeats. Identical values can stand only once. One block for each compound: values may come before it.

How the values were obtained:
zebrafish embryos = details: cited from earlier work; for Teratogenicity on zebrafish development: after 70 h of exposure (time point 72 hpf)
[1] = tested on: zebrafish embryos and larvae; assay: Morphological evaluation of zebrafish embryos/larvae exposed from 5¼ to 120 hpf; details: for Significant effect on embryo/larva development after exposure to the metabolite: 5¼–120 hpf; for Teratogenicity in zebrafish (conclusion from morphological and analytical assessment): exposure 5¼–120 hpf
Protocol: Each experiment was performed in two biological replicates (n = 2, 20 embryos/replicate) and consisted of a medium control group (EMS), solvent control group(s) (EMS + 0.5% DMSO and/or EMS + 1% DMSO) and four dose groups. […] Embryos were reared until they reached the desired developmental stage, under the same environmental conditions as the adults (28.5 °C ± 0.3 °C with a 14/10 h light/dark cycle) in the incubator (TIN-IN35, Phoenix instrument, Garbsen, Germany).
For the metabolites, E-CBZ (≥98% purity, CAS number: 36507-30-9, Supelco, Merck, Darmstadt, Germany) and HPPH (98% purity, CAS number: 2784-27-2, Sigma-Aldrich®, Merck, Darmstadt, Germany), we only selected one high concentration, 250 µM (see Supplementary Table S1). […] A higher percentage of DMSO was used for E-CBZ for the optimum dissolution of E-CBZ in EMS. Immediately after the selection (see Section 4.1), twenty embryos were randomly distributed in each control and test group. Embryos were exposed at the latest at 5 hpf in a final volume of 300 µL medium at a density of a fish per well.
For each biological replicate (n = 2), zebrafish embryos were morphologically investigated at 5¼, 10, 24, 48, 72, 96 and 120 hpf (Figure 9) using an Olympus CKX41 microscope with an Olympus U-TV0.5XC-3 lighting and an Olympys 4x/0.16 Uplan APO microscope objective (Shinjuku, Tokyo, Japon) to follow the developmental stages described by Kimmel et al.. The 5¼- and 10-hpf time points served as control steps to identify unfertilized or coagulated eggs that were included unwittingly to the experiment and referenced as coagulated in the 24-hpf morphological sheet (see Supplementary Figure S3). A series of morphological parameters were explored, adapted from Nagel et al., depending on the different time points of interest and described previously by our group (see Supplementary Figure S3). All parameters were scored 0 if normal and 1 if malformed. This binary scale was used to facilitate the scoring and no gradation of the severity of the endpoints was evaluated in this study.

zebrafish embryos/larvae = assay: Quantification of parent compounds and metabolites in whole zebrafish embryos/larvae homogenate extracts; details: for Uptake by embryos and larvae (quantified in homogenate extracts): 24 and 120 hpf, CBZ, PHE 31.25, 85, 250 µM, E-CBZ, HPPH 250 µM
Protocol: In three biological replicates (n = 3; 20 embryos/replicate) and at the two desired developmental stages (24 and 120 hpf), embryos/larvae of each test and control group were pooled and then rinsed three times with cold EMS (4 °C) on a mesh (Cell strainer […] Nylon, Steril Falcon®, Durham, NC, USA). Embryos collected at 24 hpf were not dechorionated, as the focus of this study was on the potential formation of the mammalian active metabolites. Moreover, it was argued that the chorion was more permeable than previously believed and that dechorionation could increase background malformations during gross morphology investigation. Embryos/larvae were then transferred and kept for five min in cryotubes (Cryo.S™, Greiner Bio-One, Frickenhausen, Germany) filled with 500 µL of cold embryo medium (4 °C), before being snap-frozen in liquid nitrogen and kept, for later use, at −80 °C (Figure 9).
The extraction preparation was based on Brox et al. for two developmental stages, 24 and 120 hpf, and performed in triplicate for each test group (n = 3, 20 embryos/replicate) (Figure 9). On the day of the extraction procedure, frozen samples (see Section 4.2.1) were thawed on ice and EMS was removed. A volume of 500 µL of acetonitrile (ACN) (purity ≥99.9%, Merck, Darmstadt, Germany) containing the internal standard lamotrigine, LAMO, (≥98% purity, CAS number: 84057-84-1, Sigma-Aldrich, Merck, Darmstadt, Germany) was then added to each tube to reach a final concentration of 0.39 µM, after dilution in HPLC-grade water. Samples were vortexed (VM3, CAT, Germany) for 5 min at a 2000 rotation/min speed, before being placed on ice and ultrasonicated with an Ultrasonic Processor VCX 130 (Sonics, Newtown, CT, USA) fifteen times for 30 s at an 80% amplitude with pause intervals of 30 s. Supernatants of the samples were then centrifuged (Centrifuge 5424 R, Eppendorf, Hamburg, Germany) twice at 4 °C for 15 min at 15,000× g, snap-frozen and kept for later use at −80 °C, whereas the pellets were discarded.
First, both sample types were processed to reach a final percentage of 30% ACN and a concentration of 0.39 µM of the IS, LAMO. […] Calibration curves and quality controls were prepared in their corresponding reaction mixtures to minimize matrix or extraction process effects. The analytical investigations were performed on an Acquity Ultra Performance Liquid Chromatography (UPLC) with sample manager, binary solvent manager, diode array detector and a triple-quadrupole detector (ACQUITY UPLC-triple quadrupole detector, Waters, Milford, CT, USA) equipped with the Masslynx software (version 4.1). […] Separation was accomplished in 6 min, using a flow rate of 0.5 mL/min. The solvent gradient program was set as follows: 85% A/15% B (0–0.5 min); 85–0% A/15–100% B (0.5–3.3 min); 0% A/100% B (3.3–4.4 min); 0–85% A/100–15% B (4.4–4.5 min); 85% A/15% B (4.5–6 min). The column was set at 40 °C and the injection volume was 10 μL. For the mass spectrometric conditions, the following parameters were used in positive ionization mode: capillarity voltage 3.5 kV, extractor voltage 3 V, cone voltage 35 V, Rf lens 0.1 V. The source temperature was set at 120 °C and the desolation temperature at 450 °C. The desolvation gas flow was fixed at 1000 L/h and cone gas flow at 50 L/h. […] The limit of quantification, linearity, matrix effects and specificity of the method developed for each compound were validated based on the European Medicines Agency (EMA) guidelines for bioanalytical method validation and the study from Kislyuk et al..
For the quantification of the metabolites E-CBZ and HPPH, the samples processed were the microsomal incubation reactions (see Section 4.3.2), the zebrafish culture and stock medium (4.2.1) and the zebrafish embryos/larvae extracts (see Section 4.2.3). Samples from the different experiments were also prepared, as for the parent compounds, to reach a final percentage of 30% ACN and a concentration of 0.39 µM of the IS, LAMO.

[2] = Quantification of compound in stock and culture medium relative to nominal concentration (LC-MS); format: physicochemical; details: 96 hpf
Protocol: The control and test mediums were also kept in the same incubator until the last time point of the experiment. The embryo media were renewed every 48 h, to avoid medium acidification and oxygen deprivation. At each medium change and at the last time point of the experiment (Figure 9), the media exposed to the embryos were pooled and kept at −80 °C for further use (n = 3). Moreover, samples from the stock solutions kept at 28.5 °C ± 0.3 °C were also taken at 0 and 120 hpf (n = 3), whereas samples were only taken at 96 hpf for the metabolites medium (E-CBZ and HPPH).

[3] = PHE/HPPH experiment, 250 µM, 120 hpf, affected/evaluated, replicates 1 and 2
[4] = CBZ/E-CBZ experiment, 250 µM, 120 hpf, affected/evaluated, replicates 1 and 2

Compound: CC1(C)OC(=O)NC1=O [DMO, dimethadione]
- Teratogenicity on zebrafish development (zebrafish embryos): induced teratogenicity

Compound: O=C1NC(=O)C(c2ccccc2)(c2ccc(O)cc2)N1 (stereo not drawn) [HPPH, 5-(4-hydroxyphenyl)-5-phenylhydantoin]
- Significant effect on embryo/larva development after exposure to the metabolite ([1]; 250 µM): no significant effect
- Deviation Tail Curve [1, 3]: 2/20
- Deviation Tail Tissue Deviation [1, 3]: 1/20
- Malformation Head Deviation Eye [1, 3]: 2/20
- Swim Bladder Not Inflated [1, 3]: 5/20 and 6/20
- Teratogenicity in zebrafish (conclusion from morphological and analytical assessment) [1]: not teratogenic in zebrafish
- Uptake by embryos and larvae (quantified in homogenate extracts) (zebrafish embryos/larvae): Uptake of the compounds was also observed
- Internal concentration, times higher at 24 hpf than at 120 hpf (zebrafish embryos/larvae; all concentrations): ~5 times

Compound: CN1C(=O)OC(C)(C)C1=O [TMO, trimethadione]
- Teratogenicity on zebrafish development (zebrafish embryos): induced teratogenicity

- Morphological differences compared with the controls before 48 hpf ([1]; CBZ 31.25, 85, 250 µM, E-CBZ 250 µM): No statistically significant differences
- Deviation Tail Curve [1, 4]: 1/20
- Malformation Head Deviation Eye [1, 4]: 1/20
- Malformation Head Deviation Mouth [1, 4]: 1/20
- Oedema Head [1, 4]: 1/20
- Oedema Pericardium [1, 4]: 1/20
- Oedema Yolk [1, 4]: 1/20
- Swim Bladder Not Inflated [1, 4]: 3/20 and 6/20 *
- Quantified concentration above the nominal concentration ([2]; 250 µM, culture medium): around 20%
- Percentage of quantified compound concentration relatively to the nominal concentration ([2]; CBZ–E-CBZ, Culture medium, nominal 250 µM): 117.3 ± 9.3%
Compound: NC(=O)N1c2ccccc2C2OC2c2ccccc21 (stereo not drawn) [E-CBZ, carbamazepine-10,11-epoxide]
- Significant effect on embryo/larva development after exposure to the metabolite ([1]; 250 µM): delay in swim bladder inflation at 120 hpf for one replicate
- Teratogenicity in zebrafish (conclusion from morphological and analytical assessment) [1]: not teratogenic in zebrafish
- Uptake by embryos and larvae (quantified in homogenate extracts) (zebrafish embryos/larvae): Uptake of the compounds was also observed
- Findings after incubation of zebrafish embryos (zebrafish embryos; 2.6 mg/L (10.3 µM), 3 to 144 hpf): lack of findings
